Molecules are shown by their SMILES. Entries after “also recorded” stand apart in the source; their conditions may differ.

The text below walks through data of US20260185163A1, “MEN1 MUTATIONS AND USES THEREOF” (DANA-FARBER CANCER INSTITUTE, INC., priority 2022, published 2026).

Holding throughout (format): cell-based, human
Test [1] concerns MOLM13 (MLL::AF9), MV4;11 (MLL::AF4) and OCI-AML3 (NPM1c) cells expressing MEN1-M327I, -G331R and -T349M. Briefly: dose-response assay after lentiviral expression of MEN1 mutants. Particulars: viable cells after 10 days of drug treatment. How it is done: Cell lines were obtained from the “American Type Culture Collection” (ATCC) or the “Deutsche Sammlung von Mikroorganismen und Zellkulturen” (DSMZ) and cultured in RPMI-1640™ (for MOLM13, MV4;11 and OCI-AML3) or DMEM™ (for HEK-293T)+10% fetal bovine serum (FBS)+1% penicillin/streptomycin (P/S) (Life Technologies/Thermo Fisher Scientific) at 37° C., 5% CO2 atmosphere and 95% humidity. Cell lines were tested and maintained mycoplasma negative throughout all experiments. […]
To determine Menin-inhibitor responses of MOLM13, MV4;11 or OCI-AML3 cell lines expressing MEN1 mutants, 3×10^3 cells were plated per well in a non-tissue culture treated 96-well plate. […] After 6 days, cells were split 1:7 and counts of viable cells in each well were determined after 10 d of treatment by flow cytometry (LSRFortessa™ with High-throughput sampler (HTS), BD Biosciences). Relative cell counts were calculated as % of DMSO control. The average of each triplicate was calculated and the mean of all replicates was plotted. […]

In test [2] the test system is M327I- and T349M-mutant OCI-AML3 cells. Description: dose-response assay, viable cell counts by flow cytometry. How it is done:
(§1) MV4;11 and OCI-AML3 cell lines were passaged 24 h prior to nucleofection. The guide RNA (150 μmol) (sequence: 5′-[…]-3′) was added to Alt-R S.p. HiFi Cas9 nuclease (Integrated DNA Technologies) (125 μmol) followed by an incubation at room temperature (RT) for 20 min to allow formation of ribonucleoprotein (RNP) complexes. 2×10^5 cells were sedimented at 200 g for 10 min at RT, washed with PBS and resuspended in the SG Cell Line Nucleofector™ Solution (Lonza). Cells, Alt-R™ Cas9 Electroporation Enhancer (Lonza) (120 μmol) and the HDR donor oligonucleotide containing the MEN1-M327I mutation as well as a silent mutation at the protospacer adjacent motif (PAM) site (120 μmol) (sequence:5′-[…]-3′) were added to the RNP complex. For wildtype (WT) control, phosphate buffered saline (PBS) (Gibco™, Fisher Scientific) was added to the resuspended cells. Nucleofection was performed using a 16-well 20 μl Nucleocuvette™ stripe (Lonza) in a 4D-Nucleofector™ X Unit (Lonza) (program FF-100). Cells were incubated overnight in RPMI-1640+10% FCS+1% P/S containing 1 μM Alt-R™ HDR enhancer V2 (Lonza) (or DMSO for WT control). The following day, the medium was replaced by RPMI-1640+10% FBS+1% P/S. Single clones were selected in methylcellulose (MethoCult™ M3234, Stemcell™ Technologies) supplemented with 10% RPMI-1640, 10% FBS, 1% P/S and 25 nM SNDX-5613 (or DMSO for WT control), starting 3 days after nucleofection, and expanded in RPMI-1640+10% FCS+1% P/S supplemented with 25 nM SNDX-5613 (or DMSO for WT control). For the in vitro clonal selection assay of bulk nucleofected cells over time, 5×10^3 cells (3 replicates per condition) were seeded in RPMI-1640+10% FBS+1% P/S supplemented with 50 nM SNDX-5613 (or DMSO for WT control) 3 days after nucleofection. Cells were replated in fresh medium+drug every 3 days and viable cells were counted using the LSRFortessa™ (BD Biosciences) flow cytometer. Cumulative cell growth was calculated over 28 days. At each timepoint, cell pellets were frozen and genomic DNA was extracted subsequently using the DNeasy Blood and Tissue Kit™ (QIAGEN). Digital droplet-based PCR was performed from the genomic DNA to assess editing efficiency in the bulk cells over time. To analyze HDR efficiency in single cell clones, genomic DNA was PCR amplified using the Q5 High-Fidelity 2× Master Mix™ (New England BioLabs) and primers (forward: 5′-[…]-3′; reverse: 5′-[…]-3′), and the resulting 641 bp fragment containing the Cas9 cut site was gel-purified using the QIAquick Gel Extraction Kit™ (QIAGEN). Sanger sequencing was used to analyze HDR efficiency (primer 5′-[…]-3′).
(§2) To determine Menin-inhibitor responses of MOLM13, MV4;11 or OCI-AML3 cell lines expressing MEN1 mutants, 3×10^3 cells were plated per well in a non-tissue culture treated 96-well plate. The Menin-inhibitors were titrated on these cells in the following dose-range: DMSO, 3.9 nM, 7.813 nM, 15.625 nM, […], 62.5 nM, 125 nM, 250 nM, 500 nM, 1000 nM. Cells were treated in triplicates on each plate and the experiment was repeated 4 times. After 6 days, cells were split 1:7 and counts of viable cells in each well were determined after 10 d of treatment by flow cytometry (LSRFortessa™ with High-throughput sampler (HTS), BD Biosciences). Relative cell counts were calculated as % of DMSO control. The average of each triplicate was calculated and the mean of all replicates was plotted. Error bars represent the standard error of means (SEM).
For orientation: Flow cytometry measures light scatter and fluorescence of single cells or particles in a stream.

Test [3] relates to M327I- and T349M-mutant MV4;11 cells. The test is described as above. The procedure: as §1, §2

Consider `CCN(C(=O)c1cc(F)ccc1Oc1cncnc1N1CC2(CCN(C[C@H]3CC[C@H](NS(=O)(=O)CC)CC3)CC2)C1)C(C)C` [SNDX-5613, revumenib], for which the “drug sensitivity / resistance phenotype” value in test [1] was “robust decrease in SNDX-5613 sensitivity; also recorded: sufficient to establish resistance”. Further, the sensitivity entry in test [2] and in test [3] was “reduced sensitivity” each time.

As for `CNc1nc(NC2CCN(Cc3ccc4c(cc(C#N)n4CC45CC(NC=O)(C4)C5)c3C)CC2)c2cc(CC(F)(F)F)sc2n1` [MI-3454], in test [1], the “drug sensitivity / resistance phenotype” value is given as “resistance phenotype could similarly be observed”. For the same molecule, the sensitivity result in test [2] and in test [3] was “reduced sensitivity” throughout.
